Source: PubChem BioAssay (NCI)
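Exposure lasted 48 hours, with cells grown in 96-well plates and compounds tested at five concentrations. At the TGI there is no net growth.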

Experiments:
Assay in all cases: inhibition of tumour cell growth, NCI panel, 48 h
HS 578T breast = test system: HS 578T breast
SK-MEL-28 melanoma = test system: SK-MEL-28 melanoma
OVCAR-5 ovarian = test system: OVCAR-5 ovarian
UACC-257 melanoma = test system: UACC-257 melanoma
NCI/ADR-RES ovarian = test system: NCI/ADR-RES ovarian
SNB-19 CNS = test system: SNB-19 CNS
U251 CNS = test system: U251 CNS
ACHN renal = test system: ACHN renal
PC-3 prostate = test system: PC-3 prostate
RPMI-8226 leukemia = test system: RPMI-8226 leukemia
T-47D breast = test system: T-47D breast
SW-620 colon = test system: SW-620 colon
786-0 renal = test system: 786-0 renal
SN12C renal = test system: SN12C renal
SF-268 CNS = test system: SF-268 CNS
RXF 393 renal = test system: RXF 393 renal
M14 melanoma = test system: M14 melanoma
UO-31 renal = test system: UO-31 renal
LOX IMVI melanoma = test system: LOX IMVI melanoma
OVCAR-3 ovarian = test system: OVCAR-3 ovarian
HCT-116 colon = test system: HCT-116 colon
A498 renal = test system: A498 renal
MOLT-4 leukemia = test system: MOLT-4 leukemia
MDA-N = test system: MDA-N
UACC-62 melanoma = test system: UACC-62 melanoma
MCF7 breast = test system: MCF7 breast
K-562 leukemia = test system: K-562 leukemia
MALME-3M melanoma = test system: MALME-3M melanoma
CAKI-1 renal = test system: CAKI-1 renal
KM12 colon = test system: KM12 colon
HOP-62 NSCLC = test system: HOP-62 NSCLC
COLO 205 colon = test system: COLO 205 colon
IGROV1 ovarian = test system: IGROV1 ovarian
TK-10 renal = test system: TK-10 renal
SF-539 CNS = test system: SF-539 CNS
SR leukemia = test system: SR leukemia
A549 NSCLC = test system: A549 NSCLC
OVCAR-4 ovarian = test system: OVCAR-4 ovarian
SK-MEL-2 melanoma = test system: SK-MEL-2 melanoma
MDA-MB-435 = test system: MDA-MB-435
HCT-15 colon = test system: HCT-15 colon
HOP-92 NSCLC = test system: HOP-92 NSCLC
NCI-H460 lung = test system: NCI-H460 lung
OVCAR-8 ovarian = test system: OVCAR-8 ovarian
MDA-MB-231 breast = test system: MDA-MB-231 breast
SK-MEL-5 melanoma = test system: SK-MEL-5 melanoma
EKVX NSCLC = test system: EKVX NSCLC
SK-OV-3 ovarian = test system: SK-OV-3 ovarian
BT-549 breast = test system: BT-549 breast
HT29 colon = test system: HT29 colon
NCI-H522 lung = test system: NCI-H522 lung
HCC-2998 colon = test system: HCC-2998 colon
SNB-75 CNS = test system: SNB-75 CNS
NCI-H23 lung = test system: NCI-H23 lung
DU-145 prostate = test system: DU-145 prostate
HL-60(TB) leukemia = test system: HL-60(TB) leukemia
DMS 114 small cell lung = test system: DMS 114 small cell lung
NCI-H226 lung = test system: NCI-H226 lung
SNB-78 CNS = test system: SNB-78 CNS
LXFL 529 NSCLC = test system: LXFL 529 NSCLC
SF-295 CNS = test system: SF-295 CNS
DMS 273 small cell lung = test system: DMS 273 small cell lung
KM20L2 colon = test system: KM20L2 colon
M19-MEL melanoma = test system: M19-MEL melanoma
CCRF-CEM leukemia = test system: CCRF-CEM leukemia
DLD-1 colon = test system: DLD-1 colon

Measured: TGI

Oc1ccc(Cl)cc1-c1cc(-c2ccccc2)nc(NCN2CCCCC2)n1
not listed: DMS 114 small cell lung | NCI-H226 lung | SNB-78 CNS | LXFL 529 NSCLC | SF-295 CNS | DMS 273 small cell lung | KM20L2 colon | M19-MEL melanoma | CCRF-CEM leukemia | DLD-1 colon
> 100 µM: all other assays above

CCn1c(SC(C)C(=O)c2c(C)n(C)n(-c3ccccc3)c2=O)nc2ccccc2c1=O (stereo unspecified)
not listed: HS 578T breast | NCI/ADR-RES ovarian | SNB-19 CNS | PC-3 prostate | T-47D breast | SW-620 colon | RXF 393 renal | MDA-N | MCF7 breast | K-562 leukemia | CAKI-1 renal | MDA-MB-435 | MDA-MB-231 breast | BT-549 breast | HCC-2998 colon | DU-145 prostate
> 100 µM: all other assays above
